Measured values: paper PMC6540222, “Small Molecule Inhibitors of KDM5 Histone Demethylases Increase the Radiosensitivity of Breast Cancer Cells Overexpressing JARID1B” (Molecules, 2019)

Experiments:
[1] = tested on: γ-H2AX levels in MCF-7 cells; assay: Western blotting of H2AX phosphorylation after irradiation; type: cell-based, human; settings: RS5033 10 μM, KDOAM-25 0.03 μM
Procedure: Proteins were resolved on a 12% (histones) or 5% (JARID1B) denaturing polyacrylamide gel, using either 4 μg of histone preparation or 40 μg of cell lysate. After electrophoresis, proteins were transferred on a nitrocellulose membrane (Protran™ […] NC, # 10600002, GE Healthcare (Amersham™), Chicago, IL, USA) via wet transfer method using a Bio-Rad tank. Transfer efficiency was verified via ponceau staining (#P7767, Sigma-Aldrich). Filters were blocked with either milk (#70166, Sigma-Aldrich) or bovine serum albumin (#A3069, Sigma-Aldrich) and then hybridized over night at 4 °C in gentle rotation with the following antibodies: rabbit anti-H3K4me3 (1:1000, #39915, Active Motif, RRID:AB_2687512); rabbit-anti-H3K27me3 (1:1000, #9733, Cell Signaling Technology, RRID:AB_2616029); rabbit-anti- H3K9pan-methylated (1:1000, #4473, RRID:AB_10544693); rabbit-anti-H3 ([…], Cat#1791, ABCAM, RRID:AB_302613); rabbit anti-H2AX (1:1000, Cat#7631, Cell Signaling Technology, RRID:AB_10860771), rabbit anti-Phospho-H2AX (1:1000, Cat#9718, Cell Signaling Technology, RRID:AB_2118009), rabbit anti-JARID1B (1:50, Cell Signaling Technology, Cat#3273 RRID: AB_1264191). Goat-anti-Rabbit Horseradish Peroxidase conjugated (1:10,000, #31460, Thermo Fisher Scientific, Waltham, MA, USA RRID:AB_228341) was used as secondary antibody for 1 hour hybridization at room temperature. Blots were scanned and analyzed with a ChemiDoc XRS+ Imaging System (Bio-Rad). The volumes of each band of protein was acquired using Bio-Rad’s ImageLab software by means of volume tools using global quantification. The signal for each protein was normalized to the housekeeping protein and ratios with average control values were determined. For histones as loading control was used either total histone H3 detected by a specific antibody or histone H1 levels by staining the upper part of the gel properly cut before protein transfer on nitrocellulose membrane.

MCF-7 cells = assay: COMET assay (DNA damage); type: cell-based, human; settings: MCF-7, sham-irradiated, 3 μM
Procedure: To test if the cytotoxic effects of KDM5 inhibitors on MCF-7 cells were related to an increase of DNA damage accumulation, we collected cells treated with the three KDM5 inhibitors or DMSO-treated control cells after one hour from irradiation with 3 Gy of ionizing radiation (or sham-irradiation). We then performed COMET assays to assess DNA damage.
The COMET assay was performed using the OxiSelect™ 96-Well Comet Assay Kit (Cell Biolabs, Inc., San Diego, CA, USA) following the manufacturer’s instruction manual (https://www.cellbiolabs.com/sites/default/files/STA-355-comet-assay-kit.pdf).

SMILES | ɤH2AX increase normalized to the amount of H2AX ([1]; MCF-7, 6 Gy, 4-36 h) | amount of ɤH2AX ([1]; MCF-7, sham-irradiated and irradiated (6 Gy) cells) | cells with comet tail, sham-irradiated (intrinsic genotoxicity) (MCF-7 cells)
CCOC(=O)c1ccccc1C(=O)c1cccc(NS(=O)(=O)c2ccc(OC)cc2)c1 [RS5033] | statistically significant at 4 h and 24 h | increases | –
CCOC(=O)c1cccn1C(=O)c1cccc(NS(=O)(=O)c2ccc(OC)cc2)c1 [RS3195] | – | – | strong effect
